Data from patent publication US12077503B2, “Substituted cyclic amides and their use as herbicides” (FMC CORPORATION, priority 2015, dated 2024).

Legend:
Type in all cases: in vivo
Kochia (Kochia scoparia) [1] = experiment: Test A preemergence; settings: Bassia scoparia, pre-emergence, 240 h, 0 to 100 scale where 0 is no effect and 100 is complete control, read-out: Kochia plant response rating
Procedure, shortened: (§1)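 Greenhouse, ~10 d after spray; visual injury vs untreated controls, 0 = no effect, 100 = complete control. Preemergence: directed soil spray over planted seeds. Postemergence: plants 2–10 cm, 1–2 leaf stage. Loam/sand blend. Compound in non-phytotoxic solvent with surfactant.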

[2] = test system: barnyardgrass (Echinochloa crus-galli); experiment: Test A preemergence; settings: Echinochloa crus-galli, pre-emergence, 240 h, 0 to 100 scale where 0 is no effect and 100 is complete control, read-out: Barnyardgrass plant response rating
Procedure, shortened: as §1

[3] = test system: giant foxtail (Setaria faberii); experiment: Test A preemergence; settings: Setaria faberi, pre-emergence, 240 h, 0 to 100 scale where 0 is no effect and 100 is complete control, read-out: Foxtail, Giant plant response rating
Procedure, shortened: as §1

[4] = test system: pigweed (Amaranthus retroflexus); experiment: Test A preemergence; settings: Amaranthus retroflexus, pre-emergence, 240 h, 0 to 100 scale where 0 is no effect and 100 is complete control, read-out: Pigweed plant response rating
[5] = test system: ragweed (common ragweed, Ambrosia elatior); experiment: Test A preemergence; settings: Ambrosia artemisiifolia, pre-emergence, 240 h, 0 to 100 scale where 0 is no effect and 100 is complete control, read-out: Ragweed plant response rating
Procedure, shortened: as §1

[6] = test system: ryegrass, Italian (Italian ryegrass, Lolium multiflorum); experiment: Test A preemergence; settings: Lolium multiflorum, pre-emergence, 240 h, 0 to 100 scale where 0 is no effect and 100 is complete control, read-out: Ryegrass, Italian plant response rating
Procedure, shortened: as §1

[7] = test system: Galium (catchweed bedstraw, Galium aparine); experiment: Test A postemergence; settings: Galium, post-emergence, 240 h, Postemergence, read-out: Galium plant response rating (0 to 100 scale)
Procedure, shortened: as §1

Kochia (Kochia scoparia) [8] = experiment: Test A postemergence; settings: Bassia scoparia, post-emergence, 240 h, Postemergence, read-out: Kochia plant response rating (0 to 100 scale)
Procedure, shortened: as §1

[9] = test system: barnyardgrass (Echinochloa crus-galli); experiment: Test A postemergence; settings: Echinochloa crus-galli, post-emergence, 240 h, Postemergence
Procedure, shortened: as §1

[10] = test system: blackgrass (Alopecurus myosuroides); experiment: Test A postemergence; settings: Alopecurus myosuroides, post-emergence, 240 h, Postemergence, read-out: Blackgrass plant response rating (0 to 100 scale)
Procedure, shortened: as §1

corn (Zea mays) = experiment: Test A postemergence; settings: Zea mays, post-emergence, 240 h, Postemergence, read-out: Corn plant response rating (0 to 100 scale)
Procedure, shortened: as §1

[11] = test system: giant foxtail (Setaria faberii); experiment: Test A postemergence; settings: Setaria faberi, post-emergence, 240 h, Postemergence, read-out: Foxtail, Giant plant response rating (0 to 100 scale)
Procedure, shortened: as §1

[12] = test system: pigweed (Amaranthus retroflexus); experiment: Test A postemergence; settings: Amaranthus retroflexus, post-emergence, 240 h, Postemergence, read-out: Pigweed plant response rating (0 to 100 scale)
Procedure, shortened: as §1

[13] = test system: ragweed (common ragweed, Ambrosia elatior); experiment: Test A postemergence; settings: Ambrosia artemisiifolia, post-emergence, 240 h, Postemergence, read-out: Ragweed plant response rating (0 to 100 scale)
Procedure, shortened: as §1

[14] = test system: ryegrass, Italian (Italian ryegrass, Lolium multiflorum); experiment: Test A postemergence; settings: Lolium multiflorum, post-emergence, 240 h, Postemergence, read-out: Ryegrass, Italian plant response rating (0 to 100 scale)
Procedure, shortened: as §1

[15] = test system: wheat (Triticum aestivum); experiment: Test A postemergence; settings: Triticum aestivum, post-emergence, 240 h, Postemergence, read-out: Wheat plant response rating (0 to 100 scale)
Procedure, shortened: as §1

[16] = test system: barnyardgrass (Echinochloa crus-galli); experiment: Test B flooded paddy test; settings: Echinochloa crus-galli, 250 g ai/ha, Flood; 0 to 100 scale where 0 is no effect and 100 is complete control; read-out: Barnyardgrass plant response rating
Procedure, shortened: (§2)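 2-leaf plants; pots flooded 3 cm over soil; cpd added to paddy water; depth held; greenhouse 13–15 d; visual rating vs controls, 0 = no effect, 100 = complete control.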

[17] = test system: ducksalad (Heteranthera limosa); experiment: Test B flooded paddy test; settings: Heteranthera limosa, 250 g ai/ha, Flood; 0 to 100 scale where 0 is no effect and 100 is complete control; read-out: Ducksalad plant response rating
Procedure, shortened: as §2

rice (Oryra sativa) = experiment: Test B flooded paddy test; settings: Oryza sativa, 250 g ai/ha, Flood; 0 to 100 scale where 0 is no effect and 100 is complete control; read-out: Rice plant response rating
Procedure, shortened: as §2

[18] = test system: sedge, umbrella (small-flower umbrella sedge, Cyperus difformis); experiment: Test B flooded paddy test; settings: Cyperus difformis, 250 g ai/ha, Flood; 0 to 100 scale where 0 is no effect and 100 is complete control; read-out: Sedge, Umbrella plant response rating
Procedure, shortened: as §2

[19] = 125 g ai/ha, preemergence, visual injury rating, approximately 10 d
[20] = 125 g ai/ha, visual rating about 10 d after treatment
[21] = 31 g ai/ha, 0 is no effect, 100 is complete control

CN1C[C@H](c2csc3c2CCOC3)[C@@H](C(=O)Nc2ccccc2F)C1=O [Compound 1267]
90%: pest or weed control at 31 g/ha ([2]; 31 g ai/ha, Preemergence) | pest or weed control at 125 g/ha [2, 19] | pest or weed control at 31 g/ha ([3]; 31 g ai/ha, Preemergence) | pest or weed control at 125 g/ha [3, 19] | pest or weed control at 125 g/ha ([9]; 125 g ai/ha, visual rating about 10 d after treatment, read-out: Barnyardgrass plant response rating (0 to 100 scale, 0 no effect, 100 complete control)) | pest or weed control at 125 g/ha [11, 20] | pest or weed control at 250 g/ha [16] | pest or weed control at 250 g/ha [17]
0%: pest or weed control at 31 g/ha (Kochia (Kochia scoparia) [1]; 31 g ai/ha, Preemergence) | pest or weed control at 125 g/ha (Kochia (Kochia scoparia) [1]; [19]) | pest or weed control at 31 g/ha ([4]; 31 g ai/ha, Preemergence) | pest or weed control at 125 g/ha [4, 19] | pest or weed control at 31 g/ha ([5]; 31 g ai/ha, Preemergence) | pest or weed control at 125 g/ha [5, 19] | pest or weed control at 31 g/ha ([6]; 31 g ai/ha, Preemergence) | pest or weed control at 125 g/ha [6, 19] | pest or weed control at 125 g/ha [7, 20] | pest or weed control at 31 g/ha [7, 21] | pest or weed control at 125 g/ha (Kochia (Kochia scoparia) [8]; [20]) | pest or weed control at 31 g/ha (Kochia (Kochia scoparia) [8]; [21]) | pest or weed control at 125 g/ha [10, 20] | pest or weed control at 31 g/ha [10, 21] | plant injury at 125 g/ha (corn (Zea mays); [20]) | plant injury at 31 g/ha (corn (Zea mays); [21]) | pest or weed control at 125 g/ha [12, 20] | pest or weed control at 31 g/ha [12, 21] | pest or weed control at 125 g/ha [13, 20] | pest or weed control at 31 g/ha [13, 21] | pest or weed control at 125 g/ha [14, 20] | pest or weed control at 31 g/ha [14, 21] | plant injury at 125 g/ha [15, 20] | plant injury at 31 g/ha [15, 21] | pest or weed control at 250 g/ha (rice (Oryra sativa)) | pest or weed control at 250 g/ha [18]
60%: pest or weed control at 31 g/ha ([9]; 31 g ai/ha, 0 is no effect, 100 is complete control, read-out: Barnyardgrass plant response rating (0 to 100 scale)) | pest or weed control at 31 g/ha [11, 21]
